Earlier results in patent US9134323B2, “Antibody that specifically binds to an epitope in the tureet region of a human Kir channel” (priority 2009, dated 2015).
Where no end group is shown, it is not given here.

How the values were obtained:
[1] = molecular target: T1, Kir2.1 wild-type channels (Homo sapiens, UniProt P63252); conditions: applied to the outside of cells expressing the wild-type channels; 10 mM
T1 sequence (P63252 1-427): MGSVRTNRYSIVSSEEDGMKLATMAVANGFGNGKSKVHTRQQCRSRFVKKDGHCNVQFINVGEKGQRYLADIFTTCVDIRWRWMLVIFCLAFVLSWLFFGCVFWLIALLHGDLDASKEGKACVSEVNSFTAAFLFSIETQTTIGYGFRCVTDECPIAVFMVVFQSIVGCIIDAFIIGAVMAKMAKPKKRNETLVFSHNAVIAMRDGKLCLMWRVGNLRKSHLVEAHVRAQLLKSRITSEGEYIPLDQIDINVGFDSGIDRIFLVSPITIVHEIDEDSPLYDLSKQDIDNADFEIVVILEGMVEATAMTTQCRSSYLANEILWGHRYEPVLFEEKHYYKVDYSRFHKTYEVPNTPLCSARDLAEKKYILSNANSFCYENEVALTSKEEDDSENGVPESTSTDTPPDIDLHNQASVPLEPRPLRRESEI

[2] = test system: Kir2.1 channel, variable sequence mutated to be Kir3.4-like; conditions: turret variable sequence mutated to be Kir3.4-like
Kir1.1 channels = molecular target: T2, Kir1.1 channels (Homo sapiens, UniProt P48048)
T2 sequence (P48048 1-391): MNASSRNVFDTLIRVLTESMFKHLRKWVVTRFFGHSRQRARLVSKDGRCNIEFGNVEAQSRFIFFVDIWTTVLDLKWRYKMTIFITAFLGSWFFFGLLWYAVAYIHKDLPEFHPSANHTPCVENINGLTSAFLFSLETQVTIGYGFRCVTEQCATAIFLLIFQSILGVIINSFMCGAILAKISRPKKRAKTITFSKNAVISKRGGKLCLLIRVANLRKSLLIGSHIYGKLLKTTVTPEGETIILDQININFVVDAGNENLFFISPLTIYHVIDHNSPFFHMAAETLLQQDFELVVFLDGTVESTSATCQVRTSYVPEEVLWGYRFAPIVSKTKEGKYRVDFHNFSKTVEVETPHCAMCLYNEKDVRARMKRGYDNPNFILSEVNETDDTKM

Kir3.4 channels = molecular target: T3, Kir3.4 channels (Homo sapiens, UniProt P48544+P48549)
T3 sequence (P48544 1-419): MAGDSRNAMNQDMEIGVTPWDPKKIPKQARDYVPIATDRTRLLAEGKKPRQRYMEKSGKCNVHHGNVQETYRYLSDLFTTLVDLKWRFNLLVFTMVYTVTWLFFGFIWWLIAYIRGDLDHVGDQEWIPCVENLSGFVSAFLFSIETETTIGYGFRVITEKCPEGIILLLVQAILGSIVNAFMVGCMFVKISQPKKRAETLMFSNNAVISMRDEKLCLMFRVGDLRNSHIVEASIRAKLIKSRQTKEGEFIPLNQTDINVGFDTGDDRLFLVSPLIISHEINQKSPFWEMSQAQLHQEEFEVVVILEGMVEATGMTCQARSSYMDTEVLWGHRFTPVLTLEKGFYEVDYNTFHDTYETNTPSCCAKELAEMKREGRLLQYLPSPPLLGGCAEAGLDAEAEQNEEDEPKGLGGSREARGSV
T3 sequence (P48549 1-501): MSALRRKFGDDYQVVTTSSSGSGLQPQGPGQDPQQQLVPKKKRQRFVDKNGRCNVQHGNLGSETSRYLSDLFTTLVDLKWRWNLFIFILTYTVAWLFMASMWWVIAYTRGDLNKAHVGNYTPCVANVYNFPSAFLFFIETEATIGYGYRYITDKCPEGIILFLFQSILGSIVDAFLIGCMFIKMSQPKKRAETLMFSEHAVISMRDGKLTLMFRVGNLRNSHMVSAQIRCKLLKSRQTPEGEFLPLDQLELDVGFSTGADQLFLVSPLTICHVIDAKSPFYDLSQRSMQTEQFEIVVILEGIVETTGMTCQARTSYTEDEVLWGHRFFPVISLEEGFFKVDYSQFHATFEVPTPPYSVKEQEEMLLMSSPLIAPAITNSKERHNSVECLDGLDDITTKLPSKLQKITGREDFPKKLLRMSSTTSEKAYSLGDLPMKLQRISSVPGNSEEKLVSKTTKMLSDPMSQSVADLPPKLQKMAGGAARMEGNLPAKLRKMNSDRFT

Compound	effect on currents [1]	sensitivity of mutated Kir2.1 channel to the toxin [2]	inhibition of Kir1.1 channels (Kir1.1 channels)	inhibition of Kir3.4 channels (Kir3.4 channels)	single channel conductance in the blocked state (Kir1.1 channels; blocked state, reduced rather than inhibited all the way)
O[C@H](CS)[C@H](O)CS (racemic) [DTT, Dithiothreitol]	did not affect currents	–	–	–	–
N[C@@H](CCC(=O)N[C@@H](CS)C(=O)NCC(=O)O)C(=O)O [reduced glutathione]	did not affect currents	–	–	–	–
tertiapin (ALCNCNRIIIPHMCWKKCGKK; ends and bridges not checked; cysteine pairing not given here; UniProt P56587 1-21, looked up)	–	becomes sensitive	inhibits	inhibits	–
δ-dendrotoxin	–	–	inhibits	–	about 10%
